# Test results from ChEMBL document CHEMBL3885881, “DrugMatrix”.
# Species: Rattus norvegicus
# Test: DrugMatrix - Regimen: Daily Repeat
# Type: toxicity, organism-based, Sprague-Dawley
# Set-up: regimen Daily Repeat, gender Male, age 6-8 weeks
# Details: in vivo, po, route oral GAVAGE, vehicle .5 % CMC; for ABSOLUTE BASOPHIL / ABSOLUTE EOSINOPHIL / ABSOLUTE LYMPHOCYTE / ABSOLUTE MONOCYTE / ABSOLUTE SEGMENTED NEUTROPHIL / BASOPHIL / EOSINOPHIL / ERYTHROCYTE COUNT / HEMATOCRIT / HEMOGLOBIN / LEUKOCYTE COUNT / LYMPHOCYTE / MEAN CORPUSCULAR HEMOGLOBIN / MEAN CORPUSCULAR HEMOGLOBIN CONCENTRATION / MEAN CORPUSCULAR VOLUME / MONOCYTE / NEUTROPHIL / NUCLEATED RED BLOOD CELLS / PLATELET COUNT: tissue Blood; for ALANINE AMINOTRANSFERASE / ALBUMIN / ALKALINE PHOSPHATASE / ASPARTATE AMINOTRANSFERASE / BLOOD UREA NITROGEN / CARBON DIOXIDE / CHLORIDE / CHOLESTEROL / CREATINE PHOSPHOKINASE / CREATININE / GLUCOSE / LACTATE DEHYDROGENASE / LIPASE / PHOSPHORUS / POTASSIUM / SODIUM / TOTAL BILIRUBIN / TOTAL PROTEIN / URIC ACID: tissue Plasma
# [1] = 30 mg/kg, 72 h, dose level Low, time 3 day
# [2] = 30 mg/kg, 120 h, dose level Low, time 5 day
# [3] = 600 mg/kg, 72 h, dose level High, time 3 day
# [4] = 600 mg/kg, 120 h, dose level High, time 5 day
smiles,measurement,setting,value
Cc1c(OCC(F)(F)F)ccnc1C[S+]([O-])c1nc2ccccc2[nH]1 (configuration not stated) [LANSOPRAZOLE],ABSOLUTE BASOPHIL,[1],0 CELLS/uL
same,ABSOLUTE EOSINOPHIL,[1],38 CELLS/uL
same,ABSOLUTE LYMPHOCYTE,[1],11302.33 CELLS/uL
same,ABSOLUTE MONOCYTE,[1],38 CELLS/uL
same,ABSOLUTE SEGMENTED NEUTROPHIL,[1],588.33 CELLS/uL
same,BASOPHIL,[1],0%
same,EOSINOPHIL,[1],0.33%
same,ERYTHROCYTE COUNT,[1],5.49 x10E6/uL
same,HEMATOCRIT,[1],34.33%
same,HEMOGLOBIN,[1],12.9 G/DL
same,LEUKOCYTE COUNT,[1],11.97 x10E3/uL
same,LYMPHOCYTE,[1],94.33%
same,MEAN CORPUSCULAR HEMOGLOBIN,[1],23.47 pg
same,MEAN CORPUSCULAR HEMOGLOBIN CONCENTRATION,[1],37.53 G/DL
same,MEAN CORPUSCULAR VOLUME,[1],62.53 fL
same,MONOCYTE,[1],0.33%
same,NEUTROPHIL,[1],5%
same,NUCLEATED RED BLOOD CELLS,[1],0 /100WBC
same,PLATELET COUNT,[1],1374 x10E3/uL
same,ALANINE AMINOTRANSFERASE,[1],48.67 u/L
same,ALBUMIN,[1],4.03 G/DL
same,ALKALINE PHOSPHATASE,[1],333 u/L
same,ASPARTATE AMINOTRANSFERASE,[1],84.33 u/L
same,BLOOD UREA NITROGEN,[1],13.67 mg/dL
same,CARBON DIOXIDE,[1],25.33 mmol/L
same,CHLORIDE,[1],103 MEQ/L
same,CHOLESTEROL,[1],81.33 mg/dL
same,CREATINE PHOSPHOKINASE,[1],302.33 u/L
same,CREATININE,[1],0.28 mg/dL
same,GLUCOSE,[1],162 mg/dL
same,LACTATE DEHYDROGENASE,[1],455.33 u/L
same,LIPASE,[1],12 u/L
same,PHOSPHORUS,[1],14.17 mg/dL
same,POTASSIUM,[1],6.71 MEQ/L
same,SODIUM,[1],146.4 MEQ/L
same,TOTAL BILIRUBIN,[1],0.17 mg/dL
same,TOTAL PROTEIN,[1],5.57 G/DL
same,URIC ACID,[1],1.93 mg/dL
same,ABSOLUTE BASOPHIL,[2],0 CELLS/uL
same,ABSOLUTE EOSINOPHIL,[2],0 CELLS/uL
same,ABSOLUTE LYMPHOCYTE,[2],12566 CELLS/uL
same,ABSOLUTE MONOCYTE,[2],465.33 CELLS/uL
same,ABSOLUTE SEGMENTED NEUTROPHIL,[2],1302 CELLS/uL
same,BASOPHIL,[2],0%
same,EOSINOPHIL,[2],0%
same,ERYTHROCYTE COUNT,[2],5.54 x10E6/uL
same,HEMATOCRIT,[2],36.83%
same,HEMOGLOBIN,[2],13.67 G/DL
same,LEUKOCYTE COUNT,[2],14.33 x10E3/uL
same,LYMPHOCYTE,[2],87.67%
same,MEAN CORPUSCULAR HEMOGLOBIN,[2],24.73 pg
same,MEAN CORPUSCULAR HEMOGLOBIN CONCENTRATION,[2],37.17 G/DL
same,MEAN CORPUSCULAR VOLUME,[2],66.5 fL
same,MONOCYTE,[2],3.33%
same,NEUTROPHIL,[2],9%
same,NUCLEATED RED BLOOD CELLS,[2],0 /100WBC
same,PLATELET COUNT,[2],1375.67 x10E3/uL
same,ALANINE AMINOTRANSFERASE,[2],52.33 u/L
same,ALBUMIN,[2],4.3 G/DL
same,ALKALINE PHOSPHATASE,[2],288.67 u/L
same,ASPARTATE AMINOTRANSFERASE,[2],81 u/L
same,BLOOD UREA NITROGEN,[2],16.33 mg/dL
same,CARBON DIOXIDE,[2],22.33 mmol/L
same,CHLORIDE,[2],103.67 MEQ/L
same,CHOLESTEROL,[2],82 mg/dL
same,CREATINE PHOSPHOKINASE,[2],222.67 u/L
same,CREATININE,[2],0.33 mg/dL
same,GLUCOSE,[2],147 mg/dL
same,LACTATE DEHYDROGENASE,[2],157.67 u/L
same,LIPASE,[2],13 u/L
same,PHOSPHORUS,[2],12.33 mg/dL
same,POTASSIUM,[2],7.1 MEQ/L
same,SODIUM,[2],147.6 MEQ/L
same,TOTAL BILIRUBIN,[2],0.2 mg/dL
same,TOTAL PROTEIN,[2],6.07 G/DL
same,URIC ACID,[2],1.6 mg/dL
same,ABSOLUTE BASOPHIL,[3],0 CELLS/uL
same,ABSOLUTE EOSINOPHIL,[3],0 CELLS/uL
same,ABSOLUTE LYMPHOCYTE,[3],13053.67 CELLS/uL
same,ABSOLUTE MONOCYTE,[3],222.67 CELLS/uL
same,ABSOLUTE SEGMENTED NEUTROPHIL,[3],690.33 CELLS/uL
same,BASOPHIL,[3],0%
same,EOSINOPHIL,[3],0%
same,ERYTHROCYTE COUNT,[3],5.81 x10E6/uL
same,HEMATOCRIT,[3],37.37%
same,HEMOGLOBIN,[3],13.57 G/DL
same,LEUKOCYTE COUNT,[3],13.97 x10E3/uL
same,LYMPHOCYTE,[3],93.67%
same,MEAN CORPUSCULAR HEMOGLOBIN,[3],23.33 pg
same,MEAN CORPUSCULAR HEMOGLOBIN CONCENTRATION,[3],36.3 G/DL
same,MEAN CORPUSCULAR VOLUME,[3],64.3 fL
same,MONOCYTE,[3],1.33%
same,NEUTROPHIL,[3],5%
same,NUCLEATED RED BLOOD CELLS,[3],0.33 /100WBC
same,PLATELET COUNT,[3],1408 x10E3/uL
same,ALANINE AMINOTRANSFERASE,[3],39 u/L
same,ALBUMIN,[3],4.1 G/DL
same,ALKALINE PHOSPHATASE,[3],387.33 u/L
same,ASPARTATE AMINOTRANSFERASE,[3],76.67 u/L
same,BLOOD UREA NITROGEN,[3],16.33 mg/dL
same,CARBON DIOXIDE,[3],28 mmol/L
same,CHLORIDE,[3],104.67 MEQ/L
same,CHOLESTEROL,[3],55.33 mg/dL
same,CREATINE PHOSPHOKINASE,[3],222 u/L
same,CREATININE,[3],0.18 mg/dL
same,GLUCOSE,[3],159 mg/dL
same,LACTATE DEHYDROGENASE,[3],91.33 u/L
same,LIPASE,[3],9.67 u/L
same,PHOSPHORUS,[3],12.23 mg/dL
same,POTASSIUM,[3],6.7 MEQ/L
same,SODIUM,[3],147.6 MEQ/L
same,TOTAL BILIRUBIN,[3],0.13 mg/dL
same,TOTAL PROTEIN,[3],5.53 G/DL
same,URIC ACID,[3],1.8 mg/dL
same,ABSOLUTE BASOPHIL,[4],0 CELLS/uL
same,ABSOLUTE EOSINOPHIL,[4],0 CELLS/uL
same,ABSOLUTE LYMPHOCYTE,[4],15467 CELLS/uL
same,ABSOLUTE MONOCYTE,[4],599 CELLS/uL
same,ABSOLUTE SEGMENTED NEUTROPHIL,[4],1467.33 CELLS/uL
same,BASOPHIL,[4],0%
same,EOSINOPHIL,[4],0%
same,ERYTHROCYTE COUNT,[4],5.82 x10E6/uL
same,HEMATOCRIT,[4],35.9%
same,HEMOGLOBIN,[4],13.57 G/DL
same,LEUKOCYTE COUNT,[4],17.53 x10E3/uL
same,LYMPHOCYTE,[4],87.67%
same,MEAN CORPUSCULAR HEMOGLOBIN,[4],23.33 pg
same,MEAN CORPUSCULAR HEMOGLOBIN CONCENTRATION,[4],37.8 G/DL
same,MEAN CORPUSCULAR VOLUME,[4],61.7 fL
same,MONOCYTE,[4],3.33%
same,NEUTROPHIL,[4],9%
same,NUCLEATED RED BLOOD CELLS,[4],0.33 /100WBC
same,PLATELET COUNT,[4],1179.67 x10E3/uL
same,ALANINE AMINOTRANSFERASE,[4],36 u/L
same,ALBUMIN,[4],3.93 G/DL
same,ALKALINE PHOSPHATASE,[4],272.33 u/L
same,ASPARTATE AMINOTRANSFERASE,[4],83.33 u/L
same,BLOOD UREA NITROGEN,[4],16.67 mg/dL
same,CARBON DIOXIDE,[4],28.33 mmol/L
same,CHLORIDE,[4],106 MEQ/L
same,CHOLESTEROL,[4],51.33 mg/dL
same,CREATINE PHOSPHOKINASE,[4],144.33 u/L
same,CREATININE,[4],0.17 mg/dL
same,GLUCOSE,[4],138.67 mg/dL
same,LACTATE DEHYDROGENASE,[4],71 u/L
same,LIPASE,[4],10.67 u/L
same,PHOSPHORUS,[4],10.43 mg/dL
same,POTASSIUM,[4],6.81 MEQ/L
same,SODIUM,[4],148.63 MEQ/L
same,TOTAL BILIRUBIN,[4],0.17 mg/dL
same,TOTAL PROTEIN,[4],5.73 G/DL
same,URIC ACID,[4],1.27 mg/dL
